Counter-ions that a name gives are not always drawn. Positions of bridges follow the written chain, without caps; N, C: chain ends. Non-standard residues stand in square brackets, D forms with d. Residues, ends and D or L forms follow the SMILES beside them. hArg = N=C(N)NCCCC[C@H](N)C(=O)O; Mpa = O=C(O)CCS
How the values were obtained:
platelets [1] = assay: Vessel-On-Chip blood perfusion, platelet coverage/aggregation by fluorescence imaging; type: cell-based, human
Description: At the start of each experiment, two vials of cells were thawed and expanded for 3 days in EGM-2. Cells were gently detached with 0.05% Trypsin (BD Biosciences, 2-4 minutes incubation at room temperature) and 8×10^6 cells/ml were introduced into the ECM-coated microchannels. After incubating for 30 minutes at 37° C., cell attachment to the bottom surface of the chamber was assessed by microscopy. Then, a second flask of HUVECs was trypsinized and used to seed the upper surface of the microfluidic chamber by introducing the cell suspension, inverting the chip, and incubating at 37° C. for 30 minutes. Each microfluidic chamber was gently flushed with EGM-2 twice in order to remove unbound cells, then chips were incubated overnight at 37° C. The next day, chips were connected to a syringe pump (Chemyx Fusion 200) and perfused with EGM-2 for 3 days (30 μL/hr) to provide continuous supply of fresh media. On day 3, medium was switched to EGM-2 with low serum (1% FBS, no VEGF) to promote cell synchronization overnight. On day 4, chips were used for blood perfusion experiments.
Citrated human blood (Research Blood Components, Cambridge, Mass.) was used within 4 hours of a blood draw in order to minimize pre-analytical effects on platelet function. Before every experiment, each one of the endothelialized channels (i.e. microchannels having an endothelial cell layer) was inspected via light microscopy. Samples showing any sign of discontinuity in the endothelium were discarded.
Platelets were labeled with human CD41-PE antibody (10 μL/ml, Invitrogen) directly added to the blood and incubated at room temperature for 5 minutes.
(§1) A medical grade plastic reservoir was mounted on the chip, then 800 μl of the blood sample was pipetted into the reservoir. The chip was perfused with the blood by withdrawing it at a rate of 60 μl/minute using a syringe pump. The citrated blood was re-calcified 2 minutes after the beginning of each experiment by adding 100 μl/ml of a solution containing 100 mM calcium chloride and 75 mM magnesium chloride to the blood to permit calcium- and magnesium-dependent platelet function and coagulation.
(§2) Chips perfused with blood samples were immediately imaged via fluorescence microscopy (Olympus IX83, 10X objective UPLFLN10X2, Circa-Flash4.0 CMOS Camera). Each chamber was inspected along its entire length and 5 images (about […]) were captured from the central area of the chamber. Image processing and quantification was performed with an automatic macro compiled in […] and numerical values corresponding to platelet coverage or fibrin florescence were collected and statistically analyzed in Graphpad Prism V7.
(§3) A percentage of signal coverage (or Platelet coverage) was computed from the binary image as the ratio of bright pixels to the total number of pixels in the image. Image processing and quantification was performed with an automatic macro compiled in ImageJ ire order to ensure unbiased signal measurements. Numerical values corresponding to platelet coverage or fibrin fluorescence (signal intensity) were collected and statistically analyzed in Graphpad Prism V7.

fibrin = assay: Vessel-On-Chip blood perfusion, fibrin deposition by fluorescent fibrinogen imaging; type: cell-based, human
Description: as §1
When analyzing the formation of fibrin, 10 μg/ml of fluorescently labeled fibrinogen (Alexa 488, Invitrogen) was also added to the blood. While fluorescent fibrinogen was barely detected as a diffused fluorescence, fibrin deposition on inflamed cells and sparse clots was easily distinguished since fibrin formed filamentous structures produce a signal intensity that is clearly observed above a background threshold.
as §2, §3

[2] = tested on: thrombin anti-thrombin complex (TAT); assay: Thrombin-anti thrombin (TAT) measurement via ELISA in chip effluent; type: cell-based, human; details: for TAT increment: Eptifibatide treatment
Description: Thrombin Anti-Thrombin (TAT) levels were analyzed in plasma from blood flowing out of the chip device by removing a sample from the outflow port. Thus TAT levels were evaluated in sample effluents collected from the outflow port of the chip using the Human TAT ELISA Kit (Siemens Healthineers) according to the user manual.
Blood sampled from the Vessel-On-Chip outflow port was analyzed for thrombin anti-thrombin complex (TAT), a factor released upon activation of the coagulation cascade and one of the biomarkers associated with thrombotic events occurring in patients affected with deep vein thrombosis (DVT) or SLE^45,46. TAT is an accepted clinical biomarker for procoagulation^48,49. An enzyme-linked immunosorbent assay (ELISA) was used to quantify the thrombin anti-thrombin complex (TAT).

ICAM1 = ICAM1 immunostaining of endothelium on chip; type: cell-based, human; details: TNF-α stimulated endothelium compared to the control
Description: In some experiment endothelial cells were stimulate with 50 ng/ml of TNF (Sigma) for 6 hours in order to induce vascular inflammation before blood perfusion.

platelets [3] = assay: Platelet activation quality control by p-selectin expression; type: cell-based, human; details: control blood upon activation by ADP
Description: To test for a thrombic event, blood was collected from 4 donors, the as blood alone or blood treated with hu5C8 alone (240 μg/mL), sCD40L (10 ng/ml) alone or with combined hu5C8/sCD40L was incubated for 20 minutes at room temperature. Each sample was further incubated for 5 minutes with fluorescent labels for platelets and fibrinogen. As a standard quality control, the control blood was tested for platelet activation using p-selection expression. We confirmed that platelets in control blood were not activated but upon activation by ADP, over 90% of platelet was positive for p-selectin.

re-calcified blood = assay: On-chip anticoagulation of outflowing blood through the anticoagulant port; design: species or system human; details: sodium citrate through the anticoagulant port vs chips without anticoagulant port
Description: In one embodiment, the surface area of the vascular compartment of a microfluidic chip used herein is greater in comparison to the original lung-on-a-chip design because the original size was too small for optimal blood component interaction with endothelium. As described herein, a 1 mm wide and 200 μm tall chamber provided an increase in size of the vascular surface area exposed to laminar flow, as compared to an exemplary lung-on-chip. An anticoagulant port, referred to by several names, including but not limited to EDTA input, citrate input, etc., was added near the outflow port of the vascular chamber. Thus two ports (anticoagulant port and vascular outflow i.e. outflow) were linked through a microfluidic channel (dimension of 250 um wide by 100 um height) to allow for perfusion of anticoagulant solution during the experiment. In some embodiments, modifications were made in the […] dimension. The outlet of the chip was connected to a pulling syringe pump with a system of tubing and connectors made of medical grade silicon that excludes any metal components or potential causes of platelet activation. […]

platelets [4] = assay: Hu5C8 mediated thrombosis on-chip, FcγRIIa dependence (platelet coverage, fibrin deposition, TAT); type: cell-based, human
Description: Recent studies conducted on humanized mice expressing the human Fcγ receptors (FCGR2A) have shown that this receptor plays a role in thrombosis leading to the IC-mediated toxicity^12,16,21. […] In order to investigate if the IC5c8-induced thrombosis that we observed in our vessel-on-chip system also relies on an Fc-mediated mechanism, we used two different tool molecules: IgG2σ and IV.3 (FIG. 25A). The IgG2σ variant of hu5C8 has an engineered Fc region^48 that eliminates affinity for the FcγRIIa, while the monoclonal antibody IV.3 is a blocking antibody binding to FcγRIIa. […]
Some of the blood samples were treated with IV.3 (1 μg/ml) for 10 minutes to block the FcγRIIa, and then incubated for 20 more minutes with IC5c8. […] We tested 15 donors and all the tested conditions described above were tested in duplicates and analyzed as percentage of platelet coverage based on fluorescence microscopic imaging (FIG. 25B). […]
Blood from several human donors were aliquoted into groups for the following treatments: controls (PBS), sCD40L, combined hu5C8/sCD40L, combined hu5C8 (IgG2σ)/sCD40L combined, and combined hu5C8/sCD40L/IV.3. Each condition was tested with a minimum of 3 donors to a maximum of 15 donors, and all conditions were tested in duplicates and analyzed for platelet coverage (FIG. 25B), fibrin deposition (FIG. 25C), or increased formation of TAT measured in the eluates (FIG. 25D). […]

[5] = TNF-α 50 ng/ml 6 hours on endothelium, or sCollagen 10 μg/ml in blood, vs control blood
[6] = Eptifibatide 2 ug/ml, endothelium inflamed with TNF-α, n=4
[7] = Eptifibatide 2 ug/ml, following treatment with sCollagen, n=4
[8] = Eptifibatide 2 ug/ml, samples treated with TNF-α, n=4
[9] = hu5C8 240 μg/mL, sCD40L 10 ng/ml, 4 donors, 60 μl/minute about 10 minutes, vs untreated blood

## TNF-α
Platelets [1]; [5]
  areas of platelet coverage: increased
fibrin; [5]
  fibrin signal intensity: increased
[2]; plasma from blood flowing out of the chip, FIG. 22B
  levels of TAT: significantly increased
ICAM1
  expression of ICAM1 in the endothelium: increased

## Nc1ncnc2c1ncn2[C@@H]1O[C@H](COP(=O)(O)OP(=O)(O)O)[C@@H](O)[C@H]1O [ADP]
Platelets [3]
  platelet positive for p-selectin: over 90%

## O=C(O)CC(O)(CC(=O)O)C(=O)O [sodium citrate]
re-calcified blood
  state of blood collected from the effluent: soluble (not clotted) blood

## hu5C8 (IgG2σ): IgG2σ variant of hu5C8 with engineered Fc region that eliminates affinity for FcγRIIa
Platelets [4]; combined with sCD40L (IV.3: combined hu5C8/sCD40L/IV.3)
  signs of thrombosis in any of the endpoints: did not show signs of thrombosis
Platelets [4]; preformed IC, IV.3 1 μg/ml 10 minutes, 15 donors
  hu5C8-mediated thrombosis: suppressed

## N=C(N)NCCCC[C@@H]1NC(=O)CCSSC[C@@H](C(N)=O)NC(=O)[C@@H]2CCCN2C(=O)[C@H](Cc2c[nH]c3ccccc23)NC(=O)[C@H](CC(=O)O)NC(=O)CNC1=O [Eptifibatide] ([Mpa][hArg]GDWPC-NH2; disulfide 1-7)
Platelets [1]; [6]
  platelet aggregation: significantly inhibited
Platelets [1]; [7]
  inhibitory effect on platelet aggregation: comparatively modest
Platelets [1]; [8]
  platelet adhesion (image analysis): completely inhibited
fibrin; [6]
  fibrin clot formation: significantly inhibited
fibrin; [7]
  inhibitory effect on fibrin clot formation: comparatively modest
fibrin; [8]
  fibrin signal (image analysis): a significant amount of fibrin signal was still detectable
[2]; TNF-α-induced inflammation
  TAT increment: did not inhibit
[2]; sCollagen treatment
  TAT increment: entirely suppressed

## hu5C8: humanized monoclonal IgG1 antibody against CD40L (anti-CD154)
Platelets [1]; [9]
  platelet aggregate formation on the endothelium: no significant treatment-related effects
fibrin; [9]
  fibrin deposition on the endothelium: no significant treatment-related effects

— patent US10852311B2, “Additive channels” (Emulate Inc., priority 2016, dated 2020)
